The values below come from article PMC10179080, “In Vivo and In Vitro Characterization of Close Analogs of Compound KA-11, a New Antiseizure Drug Candidate” (International Journal of Molecular Sciences, 2023).

Data set [1] relates to tonic–clonic seizures in mice. Description: Maximal electroshock seizure (MES) test. It counts as in vivo. The protocol:
(§1) The experiments were conducted on adult male albino Swiss mice weighing 22–26 g. The animals were kept in colony cages under standardized laboratory conditions: natural light–dark cycle 12/12 h, temperature 20–24 °C, air humidity 45–65% and free access to tap water and food (chow pellets). After 7 days of adaptation to laboratory conditions, the animals were randomly assigned to experimental groups consisting of 8 mice. The experimental procedures described herein were approved by the Local Ethics Committee in Lublin, Poland (approval numbers: 71/2020 and 13/2021), and were conducted in accordance with EU Directive 2010/63/EU for animal experiments. All efforts were made to minimize animal suffering and to use only the number of animals necessary to produce reliable scientific data according to the 3Rs rule.
All substances (except PTZ and tetracaine hydrochloride dissolved in water for injections) were suspended in a 1% solution of Tween 80 (Sigma-Aldrich, Saint Louis, MO, USA) in water for injections (Baxter, Warszawa, Poland) or 0.9% NaCl. All drugs were injected intraperitoneally (i.p.) 30 min before all seizure models with 1 mL syringes as a single injection, in a volume of 10 mL/kg. The pretreatment time (30 min) before testing for KA-228 and KA-232 was chosen based on the time to peak of maximum anticonvulsant activity of KA-11 from our previous studies.
The tonic–clonic seizures in mice were evoked by an electric stimulus (an alternating current 25 mA, 50 Hz, maximum output voltage 500 V, 0.2 s) generated by a rodent shocker (Hugo Sachs Elektronik, Freiburg, Germany) and delivered via ear-clip electrodes. […] This experimental procedure has been described in detail in our previous studies.
The ED50 or TD50 values for tested substances in the acute animal models of seizures were calculated using the computer log-probit analysis. Subsequently, the ED50 and TD50 values (±SEM) were statistically analyzed using one-way analysis of variance (ANOVA) followed by the post hoc Dunnett’s test for multiple comparisons. Differences among values were considered statistically significant if p < 0.05. GraphPad Prism version 8 for Windows (GraphPad Software, San Diego, CA, USA) was used as a statistical software program. The results obtained from the acute ivPTZ test and grip strength test were evaluated by a Student’s t test. Fisher’s exact probability test was used to analyze protection from tonic forelimb and hindlimb extension in the ivPTZ test.
In general terms: Protection in the maximal electroshock model is a classic sign of anticonvulsant action.

The target of data set [2] is 5-HT1A (agonist radioligand) (Homo sapiens, UniProt P08908). Description: Radioligand binding, 5-HT1A.
Chain of 5-HT1A (agonist radioligand) (P08908 whole entry): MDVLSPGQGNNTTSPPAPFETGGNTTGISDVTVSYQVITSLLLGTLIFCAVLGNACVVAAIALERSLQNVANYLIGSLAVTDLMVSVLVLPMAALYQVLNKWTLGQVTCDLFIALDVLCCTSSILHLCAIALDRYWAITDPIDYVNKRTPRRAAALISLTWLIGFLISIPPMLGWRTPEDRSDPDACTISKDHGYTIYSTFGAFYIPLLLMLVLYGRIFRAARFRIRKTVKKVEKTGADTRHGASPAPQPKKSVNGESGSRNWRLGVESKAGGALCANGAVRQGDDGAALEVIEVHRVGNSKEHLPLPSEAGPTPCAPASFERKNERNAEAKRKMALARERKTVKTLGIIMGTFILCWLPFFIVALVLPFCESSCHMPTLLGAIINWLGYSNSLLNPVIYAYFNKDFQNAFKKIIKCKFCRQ
A short description of data set [3]: Metabolic stability in human liver microsomes. The note with it: pH 7.4, 120 min, TRIS buffer pH 7.4, 37 °C, read-out: Metabolic stability (% remaining after incubation with HLMs). It counts as in vitro ADME. The protocol: (§2) The assays and protocols used for evaluating the KA-232 ADME-Tox parameters were similar to those described previously for compound KA-11 [6].
Figure S3 The MetaSite 6.0.1. software prediction of the most probably sites of KA-232
metabolism. The darker red color - the higher probability to be involved in the metabolism
pathway. The blue circle marked the site of compound with the highest probability of metabolic
Figure S4 UPLC spectra after 120 min incubation of compound KA-232 with human liver
microsomes in TRIS buffer pH=7.4 at 37 °C.
reaction mixture. Three metabolites M1, M2 and M3 were identified as well as the products
(m/z= 382.18, m/z=445.23) of compound degradation in physiological buffers (see also Figure […]
Background: Microsomes from liver hold many membrane-bound enzymes, among them those of drug oxidation.

Data set [4] can be described thus: Stability in PBS buffer during PAMPA incubation. The note with it: 5 h incubation in PAMPA plate, PBS pH 7.4, RT. The format is physicochemical. Background: PAMPA measures passive passage across an artificial lipid membrane.
The nature of a further data set: Chimney test. The note with it: male, albino Swiss, mouse, in vivo, ip, mice. The protocol:
as §1
The chimney test of Boissier et al. was used to quantify the acute adverse-effect potential of KA-228 and KA-232 on motor performance in mice. […]
The ED50 or TD50 values for tested substances in the acute animal models of seizures were calculated using the computer log-probit analysis. Subsequently, the ED50 and TD50 values (±SEM) were statistically analyzed using one-way analysis of variance (ANOVA) followed by the post hoc Dunnett’s test for multiple comparisons. […] The results obtained from the acute ivPTZ test and grip strength test were evaluated by a Student’s t test. […]

Another data set concerns the target T1, CYP2D6 (Homo sapiens, UniProt P10635).
T1 construct: purchased Promega, Madison, WI, USA
Description: CYP2D6 P450-Glo assay. It counts as in vitro ADME.
From the text: as §2
Figure 9 The effect of KA-232 and the reference drug ketoconazole (KE) on CYP3A4 activity (A). The effect of KA-232 and the reference drug quinidine (QD) on CYP2D6 activity (B). The effect of KA-232 and the reference cytostatic drug doxorubicin (DX) on the HepG2 cell line (C) and the SH-SY5Y cell line (D) viability. Statistical significance (* p < 0.05, **** p < 0.0001) was analyzed by Graph Pad Prism 8 software using one-way ANOVA and Bonferroni’s Multiple Comparison Post Test.

The target of the next data set is T2, hERG potassium channel (Homo sapiens, UniProt Q12809).
T2 construct: host or cells: HEK-293 cells
T2 sequence (Q12809 whole entry): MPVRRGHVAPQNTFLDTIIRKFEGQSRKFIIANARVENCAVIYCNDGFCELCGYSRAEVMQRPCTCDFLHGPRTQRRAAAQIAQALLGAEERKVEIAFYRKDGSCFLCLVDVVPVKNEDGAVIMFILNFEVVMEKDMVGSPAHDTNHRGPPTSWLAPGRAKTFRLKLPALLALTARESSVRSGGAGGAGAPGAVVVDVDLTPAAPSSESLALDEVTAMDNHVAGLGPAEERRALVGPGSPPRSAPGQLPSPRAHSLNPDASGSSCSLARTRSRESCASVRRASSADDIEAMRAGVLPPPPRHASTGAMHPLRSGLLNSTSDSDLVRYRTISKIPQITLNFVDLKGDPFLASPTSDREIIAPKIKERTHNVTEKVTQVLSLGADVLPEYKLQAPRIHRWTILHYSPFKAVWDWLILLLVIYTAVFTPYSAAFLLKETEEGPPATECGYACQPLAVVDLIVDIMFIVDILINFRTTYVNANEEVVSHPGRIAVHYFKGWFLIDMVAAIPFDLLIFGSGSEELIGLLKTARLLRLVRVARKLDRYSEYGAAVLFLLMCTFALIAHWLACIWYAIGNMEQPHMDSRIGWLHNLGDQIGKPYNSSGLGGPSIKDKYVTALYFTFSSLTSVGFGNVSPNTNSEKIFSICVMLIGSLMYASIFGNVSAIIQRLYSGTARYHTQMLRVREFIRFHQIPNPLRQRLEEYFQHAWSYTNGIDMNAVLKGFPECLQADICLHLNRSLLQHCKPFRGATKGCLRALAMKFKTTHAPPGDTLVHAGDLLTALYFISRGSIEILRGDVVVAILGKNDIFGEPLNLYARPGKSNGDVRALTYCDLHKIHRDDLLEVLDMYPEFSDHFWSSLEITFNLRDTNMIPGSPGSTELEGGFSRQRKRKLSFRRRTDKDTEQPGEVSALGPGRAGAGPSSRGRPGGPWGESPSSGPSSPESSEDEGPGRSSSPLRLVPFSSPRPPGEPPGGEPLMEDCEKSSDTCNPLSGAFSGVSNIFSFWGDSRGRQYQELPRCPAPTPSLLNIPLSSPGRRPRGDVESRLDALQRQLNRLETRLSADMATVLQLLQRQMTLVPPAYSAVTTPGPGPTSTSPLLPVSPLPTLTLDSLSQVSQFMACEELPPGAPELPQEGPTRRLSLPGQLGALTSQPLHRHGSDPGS
Description: Radioligand binding, potassium channel (hERG). The note with it: human, human recombinant HEK-293 cells expressing hERG, KA-11 value not published before, read-out: % Inhibition of Control Specific Binding. The protocol: (§3) Dysfunction of both sodium and calcium ion channels is known to be one of the crucial reasons behind the pathogenesis of seizures. Consequently, these ion channels are molecular targets for several clinically important ASDs such as lacosamide, lamotrigine, carbamazepine, oxcarbazepine and compounds currently under preclinical and clinical studies. Thus, for KA-228 and KA-232, we tested herein their binding profile toward the aforementioned ion channels at concentrations of 10 and 100 µM (Table 3). […] Apart from in vitro studies focused on explaining the mechanism of action, KA-232 was additionally tested for its interaction with the potassium channel (hERG) which is recognized as one of the most important ‘off-targets’ responsible for harmful arrhythmogenic activity. Thus, the interaction of potential drug candidates with hERG must be excluded at an early stage of development.
(§4) Binding studies were carried out commercially in Eurofins Laboratories (Poitiers, France or New Taipei City, Taiwan).

The target of the next data set is T3, Potassium channel (hERG) (Homo sapiens, UniProt Q12809).
T3 construct: host or cells: HEK-293 cells
T3 sequence (Q12809 whole entry): as above
Description: Radioligand binding, potassium channel (hERG). The following applies: 100 µM; KA-11 value not published before. The protocol: as §3, §4

T1 sequence (P10635 whole entry): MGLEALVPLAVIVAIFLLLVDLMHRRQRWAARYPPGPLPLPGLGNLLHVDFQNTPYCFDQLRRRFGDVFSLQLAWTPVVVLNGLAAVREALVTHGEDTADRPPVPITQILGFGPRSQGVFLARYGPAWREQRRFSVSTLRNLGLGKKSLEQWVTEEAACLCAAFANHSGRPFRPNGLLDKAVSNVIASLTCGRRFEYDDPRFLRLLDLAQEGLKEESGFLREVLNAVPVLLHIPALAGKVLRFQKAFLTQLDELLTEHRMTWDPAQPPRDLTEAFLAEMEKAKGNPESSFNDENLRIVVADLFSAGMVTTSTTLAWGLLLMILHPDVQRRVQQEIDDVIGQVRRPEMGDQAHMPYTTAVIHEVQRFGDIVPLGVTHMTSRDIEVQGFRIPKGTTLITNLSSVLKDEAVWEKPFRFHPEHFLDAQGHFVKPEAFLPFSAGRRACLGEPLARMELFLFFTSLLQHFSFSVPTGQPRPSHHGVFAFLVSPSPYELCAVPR

In general, melting point refers to the temperature, or range, at which the solid turns liquid. By ED50 is commonly meant the dose at which the effect has come halfway, by size or by number of responders. What is called inhibition is the share of the control response that was lost under treatment. As a reminder, the share remaining is the share of the starting amount still present when the sample was taken. For `CC(C(=O)N1CCN(c2cccc(C(F)(F)F)c2)CC1)N1C(=O)CC(N(C)C)C1=O.Cl` (stereo not drawn) [KA-232, 3-(Dimethylamino)-1-(1-oxo-1-(4-(3-(trifluoromethyl)phenyl)piperazin-1-yl)propan-2-yl)pyrrolidine-2,5-dione hydrochloride], the melting point lay in the range of 141.4 to 143.5 °C. Further, the ED50 in data set [1] (Mus musculus, ip, 30 min before test, read-out: ED50 MES ± SD) was determined as 61.8 ± 26.9 mg/kg. Also, the “TI (TD50/ED50), MES” value in data set [1] (i.p.) was 2.63. In addition, the “% Inhibition of Control Specific Binding” value in [2] (10 µM) is “did not interact”. Further, the inhibition at 10 µM in [2] (read-out: % Inhibition of Control Specific Binding) was 9.6%. Also, in data set [3], the fraction remaining at 2 h is roughly 73%. Further, the “stability in physiological buffer” value in [4] is reported as “some products of KA-232 degradation at the pyrrolidine-2,5-dione moiety were observed”. The same compound gave a TD50 at 30 min in the data set “Chimney test” of 163 ± 31.2 mg/kg. Also, the “CYP2D6 activity (% of control ± SD)” value at CYP2D6 (10 µM) is listed as 100.96 ± 2.57 % of control. At CYP2D6 (at 0.1 and 1 µM), the “effect on CYP2D6 activity” value was “slight induction”. Further, on hERG potassium channel, the inhibition at 60 min, 100 µM came to 18.3%. Further, the “% Inhibition of Control Specific Binding” value at Potassium channel (hERG) is on record as “did not interact”.
